Experimental data: patent US11773078B2, “Furin inhibitors” (Glaxosmithkline Intellectual Property Development Limited, priority 2018, dated 2023)

Legend:
[1] = target: T1, Furin (108-574-Tev-Flag-His) enzyme (Homo sapiens, UniProt P09958); assay: Furin enzyme assay; format: biochemical
T1 construct: Furin (108-574-Tev-Flag-His) enzyme was expressed and purified from CHO cells; TEV cleavage site (C); FLAG (C); His (C); made in house; host or cells: CHO cells
Procedure, shortened: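 Compounds ran as 11-point threefold dilutions (0.00017–10 μM final) against 40 pM furin, purified from CHO cells, for 2 h at room temperature. Buffer: 100 mM HEPES pH7.5 with 1 mM CaCl2 and 0.005% Triton X-100. Envision readout. Four-parameter curve gives pXC50.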

[2] = target: T2, furin (endogenous protease) in U20S cells (Homo sapiens, UniProt P09958); assay: Furin cell-based assay (image-based, Golgi-targeted GFP with BMP10 furin/PCSK cleavage site); details: 24-hour incubation, read-out: furin golgi cell pXC50 (converted);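 also: Read-out is mean GFP fluorescence of Golgi puncta per cell by high-content imaging, retained when furin inhibited, over an eleven-point 0.00017–10 µM series, four-parameter fit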
T2 construct: the endogenous protease cleaves GFP; endogenous in cells; host or cells: U2OS cells transduced with a BacMam reporter
T2 sequence (P09958 108-794): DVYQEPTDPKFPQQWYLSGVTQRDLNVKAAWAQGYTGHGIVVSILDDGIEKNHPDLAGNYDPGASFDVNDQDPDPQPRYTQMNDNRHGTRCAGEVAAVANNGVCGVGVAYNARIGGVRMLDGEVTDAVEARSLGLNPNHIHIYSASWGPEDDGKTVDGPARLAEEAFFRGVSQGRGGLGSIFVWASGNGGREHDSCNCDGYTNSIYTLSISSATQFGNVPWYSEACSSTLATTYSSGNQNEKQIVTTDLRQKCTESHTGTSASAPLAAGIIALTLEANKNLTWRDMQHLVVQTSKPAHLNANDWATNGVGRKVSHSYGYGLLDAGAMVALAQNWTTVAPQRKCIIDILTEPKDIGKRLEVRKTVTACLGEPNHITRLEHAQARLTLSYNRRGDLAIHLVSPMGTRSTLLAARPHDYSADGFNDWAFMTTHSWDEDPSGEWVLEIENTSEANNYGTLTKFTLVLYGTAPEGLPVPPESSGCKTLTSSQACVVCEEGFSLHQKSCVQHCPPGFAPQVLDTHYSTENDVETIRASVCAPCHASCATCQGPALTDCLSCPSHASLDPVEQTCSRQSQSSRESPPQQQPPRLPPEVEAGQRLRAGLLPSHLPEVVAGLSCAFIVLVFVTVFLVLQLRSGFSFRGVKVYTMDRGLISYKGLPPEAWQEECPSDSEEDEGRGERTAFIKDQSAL

T1 sequence (P09958 108-574): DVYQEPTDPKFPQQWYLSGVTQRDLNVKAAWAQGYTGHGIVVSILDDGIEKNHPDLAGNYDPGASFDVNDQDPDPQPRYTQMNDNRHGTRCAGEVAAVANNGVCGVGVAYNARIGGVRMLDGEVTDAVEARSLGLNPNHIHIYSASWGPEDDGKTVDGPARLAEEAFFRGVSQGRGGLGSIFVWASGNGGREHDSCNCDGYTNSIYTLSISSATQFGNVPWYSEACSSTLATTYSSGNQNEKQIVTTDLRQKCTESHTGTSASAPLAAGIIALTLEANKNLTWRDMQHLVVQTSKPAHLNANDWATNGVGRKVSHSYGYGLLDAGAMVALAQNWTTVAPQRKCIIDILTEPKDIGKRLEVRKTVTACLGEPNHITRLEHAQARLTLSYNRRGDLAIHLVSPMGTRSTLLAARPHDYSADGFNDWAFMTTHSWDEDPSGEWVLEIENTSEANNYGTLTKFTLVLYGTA

Row | SMILES | furin enzyme pIC50 [1] | EC50 [2]
1 | CN1CCN(c2ncc(Oc3cc(CN4CC5CC(CC(=O)O)CC5C4)cc(-c4cc(Cl)cc(Cl)c4)n3)cn2)CC1 (centres unmarked) [Example 129, 2-(2-((2-(3,5-dichlorophenyl)-6-((2-(4-methylpiperazin-1-yl)pyrimidin-5-yl)oxy)pyridin-4-yl)methyl)octahydrocyclopenta[c]pyrrol-5-yl)acetic acid] | 8.2 | 79.4 nM
2 | CN1CCN(c2ncc(Oc3cc(CN4CCC(CCC(=O)O)CC4)cc(-c4cc(Cl)cc(Cl)c4)n3)cn2)CC1 [Example 130, 3-(1-((2-(3,5-dichlorophenyl)-6-((2-(4-methylpiperazin-1-yl)pyrimidin-5-yl)oxy)pyridin-4-yl)methyl)piperidin-4-yl)propanoic acid] | 8.7 | 7.94 nM
3 | CC(CC1CCN(Cc2cc(Oc3cnc(N4CCN(C)CC4)nc3)nc(-c3cc(Cl)cc(Cl)c3)c2)CC1)C(=O)O (centres unmarked) [Example 131, 3-(1-((2-(3,5-dichlorophenyl)-6-((2-(4-methylpiperazin-1-yl)pyrimidin-5-yl)oxy)pyridin-4-yl)methyl)piperidin-4-yl)-2-methylpropanoic acid] | 8.7 | 31.6 nM
4 | O=C(O)CC1CCN(Cc2cc(Oc3cnc(N4CCCNCC4)nc3)nc(-c3cc(Cl)cc(Cl)c3)c2)CC1 [Example 132, 2-(1-((2-((2-(1,4-diazepan-1-yl)pyrimidin-5-yl)oxy)-6-(3,5-dichlorophenyl)pyridin-4-yl)methyl)piperidin-4-yl)acetic acid] | 8.8 | 63.1 nM
5 | CN1CC2CN(c3ncc(Oc4cc(CN5CCC(CC(=O)O)CC5)cc(-c5cc(Cl)cc(Cl)c5)n4)cn3)CC2C1 (centres unmarked) [Example 133, 2-(1-((2-(3,5-dichlorophenyl)-6-((2-(5-methylhexahydropyrrolo[3,4-c]pyrrol-2(1H)-yl)pyrimidin-5-yl)oxy)pyridin-4-yl)methyl)piperidin-4-yl)acetic acid] | 8.3 | 39.8 nM
6 | C[C@@H](CC1CCN(Cc2cc(Oc3cnc(N4CCN(C)CC4)nc3)nc(-c3cc(Cl)cc(Cl)c3)c2)CC1)C(=O)O [Example 134] | 9.5 | 25.1 nM
7 | CN1CCN(c2ncc(Oc3cc(CN4CCC5(CC4)CN(C(=O)CO)C5)cc(-c4cc(Cl)cc(Cl)c4)n3)cn2)CC1 [Example 135, 1-(7-((2-(3,5-dichlorophenyl)-6-((2-(4-methylpiperazin-1-yl)pyrimidin-5-yl)oxy)pyridin-4-yl)methyl)-2,7-diazaspiro[3.5]nonan-2-yl)-2-hydroxyethanone] | 9.2 | 10 nM
8 | CN1CCN(c2ccc(Oc3cc(CN4CC[C@@H]5[C@H](CC4)[C@H]5C(=O)O)cc(-c4cc(Cl)cc(Cl)c4)n3)cn2)CC1 [Example 136, (1R,7S,8r)-4-((2-(3,5-dichlorophenyl)-6-((6-(4-methylpiperazin-1-yl)pyridin-3-yl)oxy)pyridin-4-yl)methyl)-4-azabicyclo[5.1.0]octane-8-carboxylic acid] | 9.8 | 15.8 nM
9 | CC(O)CC1CCN(Cc2cc(Oc3cnc(N4CCN(C)CC4)nc3)nc(-c3cc(Cl)cc(Cl)c3)c2)CC1 (centres unmarked) [Example 138, 1-(1-((2-(3,5-dichlorophenyl)-6-((2-(4-methylpiperazin-1-yl)pyrimidin-5-yl)oxy)pyridin-4-yl)methyl)piperidin-4-yl)propan-2-ol] | 9.1 | 7.94 nM
10 | CN1CCN(c2ncc(Oc3cc(CN4CCC(CC(O)C(=O)O)CC4)cc(-c4cc(Cl)cc(Cl)c4)n3)cn2)CC1 (centres unmarked) [Example 139, 3-(1-((2-(3,5-dichlorophenyl)-6-((2-(4-methylpiperazin-1-yl)pyrimidin-5-yl)oxy)pyridin-4-yl)methyl)piperidin-4-yl)-2-hydroxypropanoic acid] | 9.3 | 10 nM
